Data on five molecules can be found in patent US6004967A, “Psoriasis treatment with quinazoline compounds” (priority 1997, dated 1999).

For data set [1], the system named is psoriatic human keratinocytes. The data set is described as follows: Growth of psoriatic human keratinocytes. Type of data set: cell-based. The source says: Cells and Cell Culture. All tumor cell lines were obtained from the American Type Culture Collection (Rockville, Md.), unless otherwise specified. NIH3T3 mouse fibroblasts overexpressing the EGF receptor, IGF-1 receptor, insulin receptor, PDGF-b receptor, or a chimera of the EGF receptor extracellular domain fused to the Her-2 cytoplasmic domain were engineered using retroviral vectors. These cells will be referred to as 3T3-EGFR, 3T3-IGF1R, 3T3-IR, 3T3-PDGF-bR, and 3T3-EGFR/Her-2, respectively. All cell culture media and supplements were purchased from Gibco Life Technologies (Grand Island, N.Y.) unless otherwise specified. […] Cell lines were maintained under standard conditions in culture media recommended by the ATCC, unless otherwise specified. 3T3-EGFR, 3T3-PDGF-bR, and 3T3-EGFR/Her-2 cells were maintained in DMEM containing 10% calf serum (CS) and 2 mM GLN. 3T3-IGF1R and 3T3-IR cells were maintained in DMEM containing 10% FBS and 2 mM GLN. Keratinocytes were obtained from small biopsy specimens of split-thicknessskin from patients with psoriasis and from healthy control donors.
In vitro functional studies. […] Cell lines examined in receptor phosphorylation ELISA were 3T3-EGFR, 3T3-EGFR/Her-2, 3T3-PDGF-bR, 3T3-IGF1R, and 3T3-IR. For analysis of DNA replication (measured as incorporation of BrdU) and cell cycle progression, 3T3-EGFR and 3T3-PDGF-bR cell lines were used. Cell growth studies were carried out on A431 (EGF-R+), BT474 (Her-2+), and C6 (PDGF-bR+) cell lines.

Data set [2] has as its target T1, human EGF-R (Homo sapiens, UniProt P00533).
T1 construct: expressed in transfected cells; host or cells: NIH3T3 clone C7 (mouse fibroblasts)
In words: EGF-R whole cell kinase assay (EGF-R-3T3 ELISA). Type of data set: cell-based. The following applies: for IC50: whole cell, EGF-stimulated EGF-R phosphorylation, free base, read-out: EGFR Kinase IC50. How it is done:
The activity of the above identified compounds in inhibiting EGF-stimulatedEGF-R phosphorylation was measured in an ELISA assay.
EGF-R kinase activity (EGF-R-3T3 assay) in whole cells was measured as described below:
Coated plates are good for up to 10 days when stored at 4° C.
On day of use, remove coating buffer and replace with blocking buffer (5% Carnation Instant NonFat Dry Milk in PBS). Incubate the plate, shaking, at room temperature (about 23° C. to 25° C.) for 30 minutes. Just prior to use, remove blocking buffer and wash plate 4 times with TBST buffer.
EGF-R/C7 cell line was used for this assay.
Choose dishes having 80-90% confluence for the experiment. Trypsinize cells and stop reaction by adding 10% CS DMEM medium. Suspend cells in DMEM medium (10% calf serum (CS) DMEM medium) and centrifuge once at 1000 rpm, and once at room temperature for 5 minutes.
Resuspend cells in seeding medium (DMEM, 0.5% bovine serum), and count the cells using trypan blue. Viability above 90% is acceptable. Seed cells in DMEM medium (0.5% bovine serum) at a density of 10,000 cells per well, 100 μl per well, in a 96 well microtiter plate. Incubate seeded cells in 5% CO2 at 37° C. for about 40 hours.
Check seeded cells for contamination using an inverted microscope. Dilute drug stock (10 mg/ml in DMSO) 1:10 in DMEM medium, then transfer 5 μl to a test well for a final drug dilution of 1:200 and a final DMSO concentration of 1%. Control wells receive DMSO alone. Incubate in 5% CO2 at 37° C. for one hour.
Control wells receive DMEM alone. Incubate and shake at room temperature for 5 minutes.
Remove drug, EGF, and DMEM. Wash cells twice with PBS. Transfer HNTG* to cells, 100 μl per well. Place on ice for 5 minutes. Meanwhile, remove blocking buffer from other ELISA plate and wash with TBST as described above.
With a pipette tip securely fitted to a micropipettor, scrape cells from plate and homogenize cell material by repeatedly aspirating and dispensing the HNTG* lysis buffer. Transfer lysate to a coated, blocked, and washed ELISA plate. Incubate and shake at room temperature for one hour.
Remove lysate and wash 4 times with TBST. Transfer freshly diluted anti-phosphotyrosine (anti-Ptyr) antibody to ELISA plate at 100 μl per well. Incubate shaking at room temperature for 30 minutes in the presence of the anti-Ptyr antiserum (1:3000 dilution in TBST).
Remove the anti-Ptyr antibody and wash 4 times with TBST. Transfer the freshly diluted TAGO 30 anti-rabbit IgG antibody (anti-rabbit IgG antibody: 1:3000 dilution in TBST) to the ELISA plate at 100 μl per well. Incubate shaking at room temperature for 30 minutes.
Remove detection antibody and wash 4 times with TBST. Transfer freshly prepared ABTS/H2 O2 solution to ELISA plate, 100 μl per well. Incubate at room temperature for 20 minutes. ABTS/H2 O2 solution: 1.2 μl 30% H2 O2 in 10 ml ABTS stock.
Stop reaction by adding 50 μl 5N H2 SO4 (optional), and determine O.D. at 410 nm.
The maximal phosphotyrosine signal is determined by subtracting the value of the negative controls from the positive controls. The percent inhibition of phosphotyrosine content for extract-containing wells is then calculated after subtraction of the negative controls.

Data set [3] relates to NIH 3T3 C7 cells engineered to express EGF-R (3T3-EGFR). In words: 3T3 cell growth assay, EGF-R C7 cells (3T3-EGFR). The following applies: Mus musculus, NIH3T3, 96 h, read-out: 3T3-EGFR IC50. The data set is classed as cell-based. Here is the method: The efficacy of the above identified compounds in inhibiting or reducing EGF-R stimulated proliferation is measured by the 3T3 cell growth assay. The 3T3 growth assay was carried out as follows:
EGF-RC7 (NIH 3T3 C7 cells engineered to express EGF-R) and NIH 3T3C7 cells (as the control) were used for this assay. NIH3T3C7 cells were seeded at 2500 cells/well, […] in 10% CS+2 mM Glutamine/DMEM, in a 96 well plate; EGF-RC7 cells were seeded at 6000 cells/well, 100 μl/well in 2% FBS+2 mM Glutamine/DMEM, in a 96 well plate. Cells were incubated at 37° C., 5% CO2 overnight to allow for cell attachment to the plate.
A quinazoline compound was added to the cells at day 2. The compound was prepared in the appropriate growth medium (10% CS+2 mM glutamine in DMEM for NIH3T3C7 cells; 2% FBS+2 mM Glutamine in DMEM for EGF-RC7 cells) in a 96 well plate, and serially diluted. A total of 100 μl/well medium of the diluted compounds was added into the cells. The total volume of each well was 200 μl.
After the cells were treated with the compound for 4 days, the cells were washed with PBS and fixed with 200 μl/well ice-cold […] for one hour at 0-5° C.
Remove TCA and rinse wells 5 times with deionized water. Dry plates upside down with paper towels. Stain cells with 0.4% SRB at 100 μl/well for 10 minutes.
Pour off SRB and rinse plate 5 times with 1% acetic acid. Dry plate completely.
Solubilize the dye with 10 mM Tris-base at 100 μl/well for 10 minutes on a shaker.
Read the plate at dual wavelengths at 570 nm and 630 nm on Dynatech Elisa plate reader.

Data set [4] can be described thus: in vivo. The conditions noted are these: single dose, IP, BALB/c female mice; for LD50 at 168 h: mouse, in vivo; for LD50 at 168 h / LD10: 7 days; for deaths: at the dose for LD10/LD50.
Data set [5] relates to 3T3-PDGFR. In words: cell growth assay, PDGFR expressing cells (3T3-PDGFR), selectivity. The data set is classed as cell-based. The conditions noted are these: for IC50: 96 h, read-out: 3T3-PDGFR IC50; for PDGFR/EGFR IC50/IC50: ratio 3T3-PDGFR / 3T3-EGFR, 5760 min.
A short description of data set [6]: Plasma concentration after single IP dose. The data set is classed as in vivo. The following applies: mouse, plasma, single dose 50 mg/kg IP, BALB/c nu/nu female mice; for concentration at […]: 15 min; for concentration at 1 h: 60 min. How it is done:
**Single dose (50 mg/kg), IP, in BALB/c, nu/nu, female mice.

Read-outs that look alike come from different tables or passages of the source.

T1 sequence (P00533 25-1210): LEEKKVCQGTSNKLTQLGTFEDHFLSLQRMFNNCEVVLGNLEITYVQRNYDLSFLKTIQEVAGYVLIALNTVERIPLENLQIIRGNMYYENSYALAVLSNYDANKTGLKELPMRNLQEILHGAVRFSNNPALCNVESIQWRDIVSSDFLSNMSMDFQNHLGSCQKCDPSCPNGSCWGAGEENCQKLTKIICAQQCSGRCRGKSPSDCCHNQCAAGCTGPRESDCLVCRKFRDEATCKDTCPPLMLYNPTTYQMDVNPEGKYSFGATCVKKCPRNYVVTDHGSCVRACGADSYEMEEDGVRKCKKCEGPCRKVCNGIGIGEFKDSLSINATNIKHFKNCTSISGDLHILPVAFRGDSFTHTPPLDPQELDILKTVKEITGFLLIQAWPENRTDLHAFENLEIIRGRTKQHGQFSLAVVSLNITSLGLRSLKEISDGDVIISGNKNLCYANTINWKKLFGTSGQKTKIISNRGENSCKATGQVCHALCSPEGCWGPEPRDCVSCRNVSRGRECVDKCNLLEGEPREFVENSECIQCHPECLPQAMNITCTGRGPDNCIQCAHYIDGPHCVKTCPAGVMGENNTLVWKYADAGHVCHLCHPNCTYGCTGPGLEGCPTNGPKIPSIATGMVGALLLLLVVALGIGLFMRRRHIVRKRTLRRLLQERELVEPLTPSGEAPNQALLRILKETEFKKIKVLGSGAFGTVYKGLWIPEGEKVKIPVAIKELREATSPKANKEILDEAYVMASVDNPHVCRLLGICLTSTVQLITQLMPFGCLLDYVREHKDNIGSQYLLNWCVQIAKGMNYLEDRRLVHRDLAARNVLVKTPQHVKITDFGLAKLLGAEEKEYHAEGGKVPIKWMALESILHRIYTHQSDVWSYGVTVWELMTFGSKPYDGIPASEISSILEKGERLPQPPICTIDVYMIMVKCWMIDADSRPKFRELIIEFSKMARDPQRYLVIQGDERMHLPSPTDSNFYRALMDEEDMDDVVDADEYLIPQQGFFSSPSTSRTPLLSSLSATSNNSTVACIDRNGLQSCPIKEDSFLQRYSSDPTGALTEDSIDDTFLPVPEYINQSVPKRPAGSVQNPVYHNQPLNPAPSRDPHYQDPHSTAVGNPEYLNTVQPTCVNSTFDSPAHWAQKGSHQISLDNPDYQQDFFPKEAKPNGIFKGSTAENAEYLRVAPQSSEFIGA

For the molecule `COc1cc2ncnc(Nc3cccc(Cl)c3)c2cc1OC` [A2, 4-(3-Chlorophenylamino)-6,7-dimethoxyquinazoline], the “inhibition of psoriatic skin cell / keratinocyte proliferation in vitro (in words)” value in data set [1] was “capable of inhibiting”. Moreover, the “inhibition of EGF-stimulated EGF-R phosphorylation (in words)” value in data set [2] is given as “able to inhibit”. Besides, the 50% inhibitory concentration (IC50) in data set [3] was 110 nM. In data set [4], the LD50 at 168 h was > 200 mg/kg, the LD10 is reported as > 200 mg/kg and the deaths result is on record as “no”. In addition, the IC50 in data set [5] came to 18000 nM. Besides, in data set [6], the concentration at 5 min stood at 11500 ± 4000 ng/mL, the concentration at […] stood at 6500 ± 1300 ng/mL and the concentration at 1 h was found to be 3700 ± 500 ng/mL.
Turning to `Cc1ccc2ncnc(Nc3cccc(Cl)c3)c2c1` [A3, 4-(3-Chlorophenylamino)-6-methylquinazoline], the “inhibition of psoriatic skin cell / keratinocyte proliferation in vitro (in words)” value in data set [1] was “capable of inhibiting”. Further, in data set [2], the “inhibition of EGF-stimulated EGF-R phosphorylation (in words)” value was “able to inhibit” and the IC50 stood at 58 nM. The concentration for half-maximal inhibition (IC50) in data set [3] (cell growth, 4 days, free base) was determined as 2000 nM. The LD50 at 168 h in data set [4] was > 400 mg/kg. For the same molecule, the IC50 in data set [5] (cell growth, 4 days, free base) was 10000 nM. The “PDGFR/EGFR IC50/IC50” value in data set [5] is recorded as 5. In data set [6], this molecule came in with a concentration at 5 min of 7870 ± 980 ng/mL, a concentration at […] of 3430 ± 820 ng/mL and a concentration at 1 h of 1340 ± 110 ng/mL.
On to `COc1cc2ncnc(Nc3cccc(C(F)(F)F)c3)c2cc1OC` [A4, 4-[3-(trifluoromethyl)phenylamino]-6,7-dimethoxyquinazoline], for which, in data set [1], the “inhibition of psoriatic skin cell / keratinocyte proliferation in vitro (in words)” value is reported as “capable of inhibiting”. Also, in data set [2], the “inhibition of EGF-stimulated EGF-R phosphorylation (in words)” value is recorded as “able to inhibit” and the IC50 was < 6 nM. Moreover, the half-inhibitory concentration (IC50) in data set [3] (cell growth, 4 days, free base) turned out to be 400 nM. Moreover, the LD40 in data set [4] (printed in LD10 and LD50 columns) amounted to 400 mg/kg. Further, the IC50 in data set [5] (cell growth, 4 days, free base) was determined as 28000 nM. For the same molecule, the “PDGFR/EGFR IC50/IC50” value in data set [5] stood at 70. Besides, in data set [6], the concentration at 5 min worked out at 13300 ± 1500 ng/mL, the concentration at […] amounted to 12700 ± 3000 ng/mL and the concentration at 1 h was 3900 ng/mL.
Take `COc1cc2ncnc(Nc3cccc(C#N)c3)c2cc1OC` [A5, 4-(3-Cyanophenylamino)-6,7-dimethoxyquinazoline]: in data set [1], the “inhibition of psoriatic skin cell / keratinocyte proliferation in vitro (in words)” value is “capable of inhibiting”. In addition, in data set [2], the “inhibition of EGF-stimulated EGF-R phosphorylation (in words)” value is listed as “able to inhibit” and the IC50 is 200 nM. For the same molecule, the IC50 in data set [3] (cell growth, 4 days, free base) was 1500 nM. Further, in data set [4], the LD50 at 168 h is > 153 mg/kg, the LD10 is reported as > 153 mg/kg and the deaths result was “no”. Further, the half-inhibitory concentration (IC50) in data set [5] (cell growth, 4 days, free base) is > 100000 nM. Also, the “PDGFR/EGFR IC50/IC50” value in data set [5] was determined as 67. In data set [6], this molecule yielded a concentration at 5 min of 950 ± 420 ng/mL, a concentration at […] of 650 ± 190 ng/mL and a concentration at 1 h of 130 ± 60 ng/mL.
On to `Cc1ccc2ncnc(Nc3cccc(C(F)(F)F)c3)c2c1` [A6, 4-[3-(trifluoromethyl)phenylamino]-6-methylquinazoline], for which the “inhibition of psoriatic skin cell / keratinocyte proliferation in vitro (in words)” value in data set [1] was “capable of inhibiting”. In data set [2], the “inhibition of EGF-stimulated EGF-R phosphorylation (in words)” value is recorded as “able to inhibit” and the IC50 is 900 nM. The IC50 in data set [3] (cell growth, 4 days, free base) amounted to 6000 nM. In data set [4], the LD50 at 168 h was > 400 mg/kg, the LD10 was > 400 mg/kg and the deaths entry is given as “no”. For the same molecule, in data set [5] (cell growth, 4 days, free base), the IC50 worked out at 30000 nM. Further, the “PDGFR/EGFR IC50/IC50” value in data set [5] is 5. Also, in data set [6], the concentration at 5 min turned out to be 4450 ± 1380 ng/mL, the concentration at […] came out at 2010 ± 530 ng/mL and the concentration at 1 h is 540 ± 200 ng/mL.
